Reference: patent US20220259585A1, “METHODS OF MAKING AND UTILIZING AMBER-OBLIGATED PHAGE DISPLAY LIBRARIES” (The Texas A&M University System, priority 2019, published 2022)
Numbered stars: 1 amine (or outer) side, 2 acyl side, 3 side chain; on linkers, the order of the positions; unused ones are H or OH. Square brackets hold non-standard residues; d marks the D form. Peptide text beside a SMILES is read from it. X1 = CCCC(=S)NCCCC[C@H](N[*:1])C(=O)[*:2]; Abu = CC[C@H](N)C(=O)O

How the values were obtained:
[1] = test system: MCF-7 cells; assay: Western blot of α-tubulin K40 acetylation in MCF-7 cells (SIRT2 inhibition in cells); format: cell-based, human; details: 24 hours; for increase in acetylation level compared to S2P04 in vivo (in cells): cell line not given, cell cultures 50 μM; for α-tubulin acetylation (lysine 40): MCF-7 cells, 50 μM, versus vehicle control (0.25% DMF)
Experimental: (§1) Finally, Applicant tested the ability of S2P04, a selected peptide with intermediate potency, to inhibit SIRT2 in human embryonic kidney (HEK 293T) and breast cancer cells (MCF-7). […] Following incubation with the inhibitor, Applicant measured the acetylation level of lysine 40 of α-tubulin, a known deacetylation substrate of SIRT2.
MCF-7 (HTB-22) and HEK 293T (CRL-11268) cells purchased from American Type Culture Collection were grown in Dulbecco's Modified Eagle Medium (Invitrogen) containing 10% fetal bovine serum (Invitrogen) at 37° C. in an atmosphere of 5% CO2. Cells were seeded in a 6-well plate (Falcon 353046) at 5×10^5 viable cells/well, and grown for 24-48 hours to 60-70% confluence. […] After incubating with the inhibitors for 24 hours, the media was removed and the cells were washed twice with ice-cold PBS (Invitrogen). Cells were lysed on ice for 30 minutes in 100 μL of buffer containing 25 mM Tris pH 7.4, 150 mM NaCl, 10% glycerol, 4 mM MgCl2, 0.2 mM DTT, 1% NP-40, 25 mM nicotinamide, 5 μM trichostatin A, and 1:100 dilution of protease inhibitor cocktail (Sigma-Aldrich). The lysates were clarified by centrifugation, quantified by BCA assay (Pierce), and aliquots were stored at −80° C. Cell lysates (15 or 20 μg) were resolved by SDS-PAGE under denaturing conditions on a 12% acrylamide gel and then transferred to a 0.2 μm nitrocellulose membrane (Bio-Rad). α-tubulin acetylation (K40) and total α-tubulin were probed with primary antibody clones 6-11B-1, and B-5-1-2, respectively, which were purchased from Sigma-Aldrich (1:2,000 dilution). Primary antibodies were probed with HRP-conjugated goat anti-mouse IgG (Jackson ImmunoResearch Laboratories, Inc., 1:10,000 dilution). Chemiluminescence signals were generated with the SuperSignal™ […] Chemiluminescent substrate (ThermoFisher Scientific) and visualized with a Bio-Rad ChemiDoc XRS+ imaging system.

[2] = target: T1, SIRT3 (Homo sapiens, UniProt Q9NTG7); assay: Sirtuin inhibition assay with fluorogenic universal sirtuin substrate (SIRT3); format: biochemical; details: selectivity SIRT2 over SIRT3
T1 sequence (Q9NTG7 1-399): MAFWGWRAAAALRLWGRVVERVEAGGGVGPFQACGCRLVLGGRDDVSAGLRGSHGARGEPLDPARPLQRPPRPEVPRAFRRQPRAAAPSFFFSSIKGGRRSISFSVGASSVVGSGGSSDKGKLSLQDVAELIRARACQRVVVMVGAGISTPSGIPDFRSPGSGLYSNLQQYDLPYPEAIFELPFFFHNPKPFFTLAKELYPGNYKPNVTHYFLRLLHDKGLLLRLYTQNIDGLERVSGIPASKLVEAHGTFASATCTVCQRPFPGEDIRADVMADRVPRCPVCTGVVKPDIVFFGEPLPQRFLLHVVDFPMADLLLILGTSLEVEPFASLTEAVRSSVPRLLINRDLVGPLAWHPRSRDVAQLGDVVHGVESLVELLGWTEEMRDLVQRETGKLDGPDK
Experimental: Cell pellets were resuspended in 50 mL of lysis buffer (50 mM Tris pH 7.4, 150 mM NaCl, 0.1 mM PMSF, 1% Triton X-100) and incubated in the presence of 1 mg·mL^−1 of lysozyme for 30 minutes on ice. Following incubation, the resuspension was sonicated twice (1 s on 1 s off, 1 min total, 60% output) and clarified by centrifugation. To the clarified supernatant was added 3 mL of a 50% slurry of immobilized glutathione resin (Genscript) and the mixture was incubated at 4° C. for 30 minutes with end-over-end rotation. After 30 minutes the mixture was filtered through a disposable column, and the resin was washed with 50 mL of lysis buffer containing 0.1% Triton X-100. […] Enzyme concentration was determined from the absorbance at 280 nm using the calculated extinction coefficient of 80,790 M^−1·cm^−1.
Inhibition assays for SIRT1-3 were performed using a recently reported fluorogenic, universal sirtuin substrate (JPT Peptide Technologies, GmbH). […] Following incubation, the reaction was started with the addition of the substrate (5 μM) and product formation was monitored by measuring the fluorescence intensity every 20 seconds for 5 minutes (SIRT2) or 30 minutes (SIRT1 and SIRT3) in a BioTek Synergy H1 microplate reader at λEx=320 nm, λEm=408 nm (gain=130, read height=7 mm). […]

[3] = target: T2, SIRT2 (Homo sapiens, UniProt Q8IXJ6); assay: Sirtuin inhibition assay with fluorogenic universal sirtuin substrate (SIRT2); format: biochemical; details: for IC50: inhibition of SIRT2, mean ± standard deviation of two independent experiments
T2 sequence (Q8IXJ6 1-389): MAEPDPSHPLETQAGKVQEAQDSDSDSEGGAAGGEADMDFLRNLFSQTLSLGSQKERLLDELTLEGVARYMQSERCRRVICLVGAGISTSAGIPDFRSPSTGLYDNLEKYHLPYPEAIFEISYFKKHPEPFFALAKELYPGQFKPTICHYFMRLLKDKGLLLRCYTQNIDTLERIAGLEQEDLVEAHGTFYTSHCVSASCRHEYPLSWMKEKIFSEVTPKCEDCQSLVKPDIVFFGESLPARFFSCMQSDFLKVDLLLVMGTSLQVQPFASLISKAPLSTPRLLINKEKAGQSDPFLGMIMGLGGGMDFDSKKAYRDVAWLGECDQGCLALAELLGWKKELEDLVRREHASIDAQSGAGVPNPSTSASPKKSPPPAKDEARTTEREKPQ
Experimental: For inhibition assays, the eluted protein was loaded onto a HiPrep 26/10 desalting column (GE Healthcare) that had been pre-equilibrated with Source 15Q buffer A (20 mM Tris pH 8.0, 50 mM NaCl, 0.2 mM DTT, 10% glycerol). The desalted protein was concentrated by ultrafiltration to 1 mL (10 kDa MWCO) and applied to a 10 mL Source 15Q column (GE Healthcare) pre-equilibrated with Source 15Q buffer A. The column was washed with 3 CV (2 mL·min^−1) of Source 15Q buffer A and then eluted with a linear gradient from 0-60% Source 15Q buffer B (20 mM Tris pH 8.0, 1 M NaCl, 0.2 mM DTT, 10% glycerol; 1 mL·min^−1) over 5 CV. The fractions containing pure SIRT2 were concentrated and stored at −80° C. Enzyme concentration was determined from the absorbance at 280 nm using the calculated extinction coefficient of 32,470 M^−1·cm^−1.
Inhibition assays for SIRT1-3 were performed using a recently reported fluorogenic, universal sirtuin substrate (JPT Peptide Technologies, GmbH). The inhibition reactions were performed in 50 μL volumes at 37° C. in black, half-area, 96-well plates. The sirtuin enzyme (0.25 μM) was pre-incubated with different concentrations of the synthetic peptides (0.0064-50 μM for SIRT1 and SIRT2, 0.5-100 μM for SIRT3) or TB (0.16-150 μM for SIRT1-3) and 1 mM NAD^+ in assay buffer (20 mM Tris pH 7.8, 150 mM NaCl, 5 mM MgCl2, 1 mM DTT) for 15 minutes. Following incubation, the reaction was started with the addition of the substrate (5 μM) and product formation was monitored by measuring the fluorescence intensity every 20 seconds for 5 minutes (SIRT2) or 30 minutes (SIRT1 and SIRT3) in a BioTek Synergy H1 microplate reader at λEx=320 nm, λEm=408 nm (gain=130, read height=7 mm). Initial rates of product formation were determined by linear regression of the plot of fluorescence intensity versus time and normalized relative to 0% activity (max inhibitor) and 100% activity (no inhibitor) controls. IC50 values were determined by nonlinear regression of the plot of normalized initial rate versus inhibitor concentration using GraphPad Prism.

[4] = test system: HEK 293T cells; assay: Western blot of α-tubulin K40 acetylation in HEK 293T cells (SIRT2 inhibition in cells); format: cell-based, human; details: 50 μM, 24 hours, versus vehicle control (0.25% DMF)
Experimental: as §1
MCF-7 (HTB-22) and HEK 293T (CRL-11268) cells purchased from American Type Culture Collection were grown in Dulbecco's Modified Eagle Medium (Invitrogen) containing 10% fetal bovine serum (Invitrogen) at 37° C. in an atmosphere of 5% CO2. Cells were seeded in a 6-well plate (Falcon 353046) at 5×10^5 viable cells/well, and grown for 24-48 hours to 60-70% confluence. […] After incubating with the inhibitors for 24 hours, the media was removed and the cells were washed twice with ice-cold PBS (Invitrogen). Cells were lysed on ice for 30 minutes in 100 μL of buffer containing 25 mM Tris pH 7.4, 150 mM NaCl, 10% glycerol, 4 mM MgCl2, 0.2 mM DTT, 1% NP-40, 25 mM nicotinamide, 5 μM trichostatin A, and 1:100 dilution of protease inhibitor cocktail (Sigma-Aldrich). The lysates were clarified by centrifugation, quantified by BCA assay (Pierce), and aliquots were stored at −80° C. […]

[5] = target: T3, SIRT1 (Homo sapiens, UniProt Q96EB6); assay: Sirtuin inhibition assay with fluorogenic universal sirtuin substrate (SIRT1); format: biochemical; details: selectivity SIRT2 over SIRT1
T3 sequence (Q96EB6 1-747): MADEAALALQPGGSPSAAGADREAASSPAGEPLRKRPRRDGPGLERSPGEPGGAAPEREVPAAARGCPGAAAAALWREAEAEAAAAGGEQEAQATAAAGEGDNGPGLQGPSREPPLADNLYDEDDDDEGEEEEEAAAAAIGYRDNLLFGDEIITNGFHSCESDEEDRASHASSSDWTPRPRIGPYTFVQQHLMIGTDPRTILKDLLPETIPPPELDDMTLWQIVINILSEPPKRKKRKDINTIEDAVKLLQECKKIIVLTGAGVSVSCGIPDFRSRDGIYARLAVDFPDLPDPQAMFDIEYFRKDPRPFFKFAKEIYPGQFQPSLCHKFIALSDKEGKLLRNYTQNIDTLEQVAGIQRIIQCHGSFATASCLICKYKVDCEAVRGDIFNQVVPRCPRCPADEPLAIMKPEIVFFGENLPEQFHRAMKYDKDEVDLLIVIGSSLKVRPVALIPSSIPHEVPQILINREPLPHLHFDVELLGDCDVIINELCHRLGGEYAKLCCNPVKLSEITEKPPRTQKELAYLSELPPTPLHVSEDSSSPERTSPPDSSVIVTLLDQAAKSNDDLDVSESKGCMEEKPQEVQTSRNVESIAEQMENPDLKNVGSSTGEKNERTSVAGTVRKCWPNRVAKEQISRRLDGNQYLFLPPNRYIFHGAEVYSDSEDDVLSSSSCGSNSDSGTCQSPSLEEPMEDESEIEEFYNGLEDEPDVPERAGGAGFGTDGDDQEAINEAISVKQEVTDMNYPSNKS
Experimental: Cell pellets were resuspended in 50 mL of lysis buffer (50 mM Tris pH 8.0, 250 mM NaCl, 10 mM imidazole, 0.1 mM phenylmethanesulfonyl fluoride (PMSF), 1% Triton X-100) and incubated with 1 mg·mL^−1 lysozyme (chicken egg white) for 30 minutes on ice. Following incubation, the resuspension was sonicated twice (1 s on, 1 s off, 1 min total, 60% output) and clarified by centrifugation. […] After 30 minutes, the mixture was filtered through a disposable column and the resin was washed with 40 mL of lysis buffer containing 0.1% Triton X-100, followed by 40 mL of lysis buffer without Triton X-100. […] Enzyme concentration was determined from the absorbance at 280 nm using the calculated extinction coefficient of 40,340 M^−1·cm^−1.
Inhibition assays for SIRT1-3 were performed using a recently reported fluorogenic, universal sirtuin substrate (JPT Peptide Technologies, GmbH). […] Following incubation, the reaction was started with the addition of the substrate (5 μM) and product formation was monitored by measuring the fluorescence intensity every 20 seconds for 5 minutes (SIRT2) or 30 minutes (SIRT1 and SIRT3) in a BioTek Synergy H1 microplate reader at λEx=320 nm, λEm=408 nm (gain=130, read height=7 mm). […] IC50 values were determined by nonlinear regression of the plot of normalized initial rate versus inhibitor concentration using GraphPad Prism.

SMILES | increase in acetylation level compared to S2P04 in vivo (in cells) [1] | α-tubulin acetylation (lysine 40) [1] | α-tubulin acetylation (lysine 40) [4] | IC50 [3] | also measured
CCCC(=S)NCCCC[C@H](NC(=O)[C@@H](NC(=O)[C@@H](NC(=O)[C@H](CS)NC(C)=O)[C@@H](C)O)C(C)C)C(=O)N[C@H](C(N)=O)[C@@H](C)CC [Ac-S2P04-5, Ac-CTVXI-NH2] (Ac-CTV[X1]I-NH2) | neither led to a greater increase in acetylation level compared to S2P04 |  |  |  | 
CCCC(=S)NCCCC[C@H](NC(=O)[C@@H](NC(=O)[C@@H](NC(=O)[C@H](CS)NC(=O)[C@@H](N)[C@@H](C)O)[C@@H](C)O)C(C)C)C(=O)N[C@H](C(=O)NCC(N)=O)[C@@H](C)CC [Compound S2P04, NH2-TCTVXIG-NH2] (H-TCTV[X1]IG-NH2) |  | increase in α-tubulin acetylation | increase in α-tubulin acetylation |  | fold more potent inhibition of SIRT2 than SIRT3 [2]: 152 fold; fold more potent than TB ([3]; for each enzyme (SIRT1, SIRT2, SIRT3)): at least 33 fold; fold more potent inhibition of SIRT2 than SIRT1 [5]: 2.7 fold
CCCC(=S)NCCCC[C@H](NC(=O)[C@@H](NC(=O)[C@@H](NC(=O)[C@@H](N)CS)[C@@H](C)O)C(C)C)C(=O)N[C@H](C(N)=O)[C@@H](C)CC [Compound S2P04-5] (H-CTV[X1]I-NH2; N-terminus and C-terminus assumed) |  |  |  | 136 ± 29 nM | 
CCCC(=S)NCCCC[C@H](NC(=O)[C@@H](NC(=O)[C@@H](NC(=O)[C@@H](N)CC)[C@@H](C)O)C(C)C)C(=O)N[C@H](C(N)=O)[C@@H](C)CC [S2P04(Abu)-5, NH2-ZTVXI-NH2] (H-[Abu]TV[X1]I-NH2) | neither led to a greater increase in acetylation level compared to S2P04 |  |  |  | 
CCCC(=S)NCCCC[C@H](NC(=O)OCc1ccccc1)C(=O)Nc1ccccc1 [TB, reference compound] |  | increase in α-tubulin acetylation compared to the control | No increase in α-tubulin acetylation | 3110 nM | 
